Each structure is given as a SMILES string. ≈ marks a conversion by molar mass, not a printed value.

Some test systems named below: Vibrio parahaemolyticus; Escherichia coli; Staphylococcus aureus; Streptococcus pyogenes; Aeromonas hydrophila; Vibrio fluvialis; Vibrio alginolyticus; Escherichia coli BL21; Pseudomonas syringae; Vibrio scophthalmi ZS1; Vibrio litoralis H1.
Assay in all cases: ≥ marks a high value that may be exact or a test limit, other limits are often not marked, values filed in µg/mL are converted to µM
Test [1] relates to Streptococcus mutans UA159.
The test system of test [2] is Streptococcus mutans GS-5.
The test system of test [3] is Streptococcus sanguinis ATCC 49295.
Test [4] concerns Streptococcus gordonii ATCC 10558.
Test [5] concerns Candida albicans ATCC 64550.
Test [6] deals with Streptococcus pyogenes GAS M1T1.
Test [7] relates to Xanthomonas axonopodis pv. phaseoli ATCC 9563.
Test [8] relates to Pseudomonas aeruginosa PAO1.
Test [9] deals with Vibrio ichthyoenteri 1A00057.
Test [10] has as its system Staphylococcus aureus 1D00101.
The subject of test [11] is Vibrio vulnificus 1H00066.
In test [12] the test system is Micrococcus luteus 1D00051.
Test [13] concerns Pseudomonas aeruginosa CGMCC 1.2421.
The test system of test [14] is Staphylococcus aureus CGMCC 1.8721.
In test [15] the test system is Bacillus subtilis CGMCC 1.3376.
Test [16] relates to Staphylococcus epidermidis CGMCC 1.4260.
For test [17], the system named is Escherichia coli CGMCC 1.8732.
The test system of test [18] is Klebsiella pneumoniae CGMCC 1.1736.
For test [19], the system named is Escherichia coli ATCC 11775.
In test [20] the test system is Acinetobacter baumannii ATCC 19606.
Test [21] has as its system Pseudomonas aeruginosa ATCC 25668.
Test [22] relates to Staphylococcus aureus ATCC BAA-44.
In test [23] the test system is Enterococcus faecalis ATCC 7080.
Test [24] has as its system Staphylococcus epidermidis ATCC 12228.
Test [25] deals with Staphylococcus epidermidis ATCC 51625.
Test [26] has as its system Staphylococcus aureus ATCC 29213.
The subject of test [27] is Staphylococcus aureus ATCC 33591.

Regarding `CC(C)C[C@H](NC(=O)[C@H](CCCN=C(N)N)NC(=O)[C@H](Cc1ccccc1)NC(=O)[C@H](Cc1ccccc1)NC(=O)[C@@H](NC(=O)[C@H](CO)NC(=O)[C@@H](N)CC(C)C)[C@@H](C)O)C(=O)N[C@@H](Cc1ccccc1)C(=O)N[C@@H](CC(N)=O)C(=O)N[C@@H](CCCN=C(N)N)C(=O)N[C@@H](CO)C(=O)N[C@@H](Cc1ccccc1)C(=O)N[C@H](C(=O)N[C@@H](CCC(N)=O)C(=O)NCC(=O)N[C@@H](CCCN=C(N)N)C(=O)N[C@@H](CCCN=C(N)N)C(=O)N[C@@H](CCCN=C(N)N)C(=O)N[C@@H](CCCN=C(N)N)C(=O)N[C@@H](CO)C(=O)N[C@H](C(=O)N[C@@H](CCC(N)=O)C(=O)N[C@@H](Cc1c[nH]c2ccccc12)C(=O)N[C@@H](CS)C(=O)N[C@@H](C)C(=O)O)C(C)C)[C@@H](C)O` [LSTFFRLFNRSFTQGRRRRSVQWCA], the MIC in [1] turned out to be 3.42 µM (≈ 10.7 µg/mL); in [2] it was 4.27 µM (≈ 13.3 µg/mL); in test [3] it was 31.9 µM (≈ 99.6 µg/mL); in test [4] it was 16 µM (≈ 49.8 µg/mL).
Take `CC[C@H](C)[C@H](NC(=O)[C@H](CCCCN)NC(=O)[C@H](Cc1cnc[nH]1)NC(=O)[C@H](CC(C)C)NC(=O)[C@H](CC(C)C)NC(=O)[C@H](Cc1ccccc1)NC(=O)[C@H](CC(N)=O)NC(=O)[C@@H](N)C(C)C)C(=O)N[C@@H](Cc1ccc(O)cc1)C(=O)NCC(=O)N[C@@H](CC(N)=O)C(=O)N[C@H](C(=O)N[C@@H](CCCN=C(N)N)C(=O)N[C@@H](CC(=O)O)C(=O)N[C@@H](CO)C(=O)O)[C@@H](C)CC` [VNFLLHKIYGNIRDS]: the MIC against Vibrio parahaemolyticus was 18 µM (≈ 32.2 µg/mL); against Escherichia coli it was 2.18 µM (≈ 3.9 µg/mL); in the test with Staphylococcus aureus, 34.9 µM (≈ 62.5 µg/mL); against Streptococcus pyogenes it was at least 34.9 µM; against Aeromonas hydrophila, 2.18 µM (≈ 3.9 µg/mL); against Vibrio fluvialis, at least 34.9 µM. The molecule further displayed an MIC against Vibrio alginolyticus of 2.18 µM (≈ 3.9 µg/mL).
For the molecule `CC(=O)N[C@@H](C)C(=O)N[C@@H](C)C(=O)N[C@@H](C)C(=O)N[C@@H](C)C(=O)N[C@@H](C)C(=O)N[C@@H](C)C(=O)N[C@@H](C)C(=O)N[C@@H](C)C(=O)N[C@@H](C)C(=O)N[C@@H](CCCCN)C(N)=O` [AAAAAAAAAK], in test [5], the MIC is at least 100 µM.
`CC[C@H](C)[C@H](NC(=O)[C@H](CCCCN)NC(=O)[C@H](CC(N)=O)NC(=O)[C@H](CCCCN)NC(=O)[C@H](CC(C)C)NC(=O)[C@H](Cc1ccc(O)cc1)NC(=O)[C@H](CCC(N)=O)NC(=O)[C@H](CCCN=C(N)N)NC(=O)[C@@H](NC(=O)[C@@H](NC(=O)[C@H](CCCCN)NC(=O)[C@H](CCCCN)NC(=O)CNC(=O)[C@H](C)N)[C@@H](C)O)[C@@H](C)CC)C(=O)N[C@@H](CCCCN)C(=O)N[C@@H](CCCCN)C(=O)N[C@@H](CCCCN)C(=O)N[C@@H](Cc1c[nH]c2ccccc12)C(=O)N[C@@H](CCCN=C(N)N)C(=O)N[C@@H](CCCCN)C(=O)N[C@@H](C)C(=O)N[C@H](C(=O)N[C@H](C(=O)N[C@@H](C)C(=O)N[C@@H](Cc1c[nH]c2ccccc12)C(=O)O)[C@@H](C)CC)C(C)C` [AGKKTIRQYLKNKIKKKWRKAVIAW]: the minimum inhibitory concentration (MIC) in test [6] was 8 µM (≈ 24.5 µg/mL); in test [7], 1 µM (≈ 3.06 µg/mL); against Escherichia coli BL21, 8 µM (≈ 24.5 µg/mL); in test [8], 10 µM (≈ 30.6 µg/mL); in the test with Pseudomonas syringae, 8 µM (≈ 24.5 µg/mL).
For the molecule `CSCC[C@H](NC(=O)[C@H](CCCN=C(N)N)NC(=O)[C@H](Cc1cnc[nH]1)NC(=O)CNC(=O)[C@H](CCCCN)NC(=O)CNC(=O)[C@H](CCC(N)=O)NC(=O)[C@H](CCCN=C(N)N)NC(=O)[C@H](CCCCN)NC(=O)[C@H](Cc1ccc(O)cc1)NC(=O)[C@H](CCCCN)NC(=O)[C@H](CCCCN)NC(=O)CNC(=O)CNC(=O)[C@H](CCCCN)NC(=O)[C@@H](NC(=O)[C@@H](N)CS)C(C)C)C(=O)N[C@@H](CCCN=C(N)N)C(=O)N[C@@H](CCCN=C(N)N)C(=O)N[C@@H](Cc1ccc(O)cc1)C(=O)N[C@@H](CCCN=C(N)N)C(=O)N[C@@H](CC(N)=O)C(=O)N[C@@H](CC(N)=O)C(=O)N[C@@H](Cc1cnc[nH]1)C(=O)O` [CVKGGKKYKRQGKGHRMRRYRNNH], the MIC with Vibrio scophthalmi ZS1 was at least 340 µM; in test [9], at least 85 µM; in [10], 6 µM (≈ 17.8 µg/mL); in [11] it was at least 170 µM; with Vibrio litoralis H1, 11 µM (≈ 32.5 µg/mL); in test [12], 3 µM (≈ 8.88 µg/mL).
As to `CC[C@H](C)[C@H](NC(=O)[C@H](C)N)C(=O)NCC(=O)N[C@@H](CO)C(=O)N[C@H](C(=O)N[C@@H](CC(C)C)C(=O)NCC(=O)N[C@@H](CCCN=C(N)N)C(=O)N[C@@H](CC(C)C)C(=O)N[C@@H](C)C(=O)N[C@@H](CCCCN)C(=O)NCC(=O)N[C@@H](CC(C)C)C(=O)N1CCC[C@H]1C(=O)N[C@H](C(=O)N[C@@H](CC(C)C)C(=O)N[C@@H](CCCCN)C(=O)N[C@@H](CO)C(=O)N[C@@H](Cc1c[nH]c2ccccc12)C(=O)N[C@H](C(=O)N[C@@H](CCCCN)C(=O)N[C@@H](CC(N)=O)C(=O)N[C@@H](CCCN=C(N)N)C(N)=O)[C@@H](C)CC)[C@@H](C)O)[C@@H](C)CC` [AIGSILGRLAKGLPTLKSWIKNR], the MIC was 25 µM (≈ 62.3 µg/mL) in test [13]; at least 100 µM in [14]; 12.5 µM (≈ 31.2 µg/mL) in test [15]; 6.25 µM (≈ 15.6 µg/mL) in [16]; 25 µM (≈ 62.3 µg/mL) in test [17]; 25 µM (≈ 62.3 µg/mL) in test [18].
With `CC(C)C[C@H](NC(=O)[C@H](Cc1c[nH]c2ccccc12)NC(=O)[C@H](CCCCN)NC(=O)[C@H](CC(C)C)NC(=O)[C@H](Cc1c[nH]c2ccccc12)NC(=O)[C@H](CCCCN)NC(=O)[C@H](CCCCN)NC(=O)[C@H](CC(C)C)NC(=O)[C@H](Cc1c[nH]c2ccccc12)NC(=O)[C@@H](N)CCCCN)C(=O)N[C@@H](CCCCN)C(=O)N[C@@H](CCCCN)C(N)=O` [KWLKKWLKWLKK], the MIC in test [19] was found to be 1.19 µM (≈ 2 µg/mL); in [20], 4.75 µM (≈ 8 µg/mL); in test [21], 1.19 µM (≈ 2 µg/mL); in test [22] it was 2.37 µM (≈ 4 µg/mL); in [23], 9.49 µM (≈ 16 µg/mL); in test [24] it was 1.19 µM (≈ 2 µg/mL). The MIC in test [25], in [26] and in test [27] was 1.19 µM (≈ 2 µg/mL) each time.

These data come from DBAASP.
